Laboratory results as given in PMC3723878 (PLoS ONE, 2013).
Where a chain is given by its changes, count along the chain named.

How the values were obtained:
Assay in all cases: Saturation binding of ^125I-HEAT
[1] = target: T1, human α1A-AR F288A variant (Homo sapiens, UniProt P35348, F288A)
T1 construct: expressed in transfected cells; host or cells: COS-7 (transient, calcium phosphate), membranes
T1 sequence (P35348 1-466 F288A): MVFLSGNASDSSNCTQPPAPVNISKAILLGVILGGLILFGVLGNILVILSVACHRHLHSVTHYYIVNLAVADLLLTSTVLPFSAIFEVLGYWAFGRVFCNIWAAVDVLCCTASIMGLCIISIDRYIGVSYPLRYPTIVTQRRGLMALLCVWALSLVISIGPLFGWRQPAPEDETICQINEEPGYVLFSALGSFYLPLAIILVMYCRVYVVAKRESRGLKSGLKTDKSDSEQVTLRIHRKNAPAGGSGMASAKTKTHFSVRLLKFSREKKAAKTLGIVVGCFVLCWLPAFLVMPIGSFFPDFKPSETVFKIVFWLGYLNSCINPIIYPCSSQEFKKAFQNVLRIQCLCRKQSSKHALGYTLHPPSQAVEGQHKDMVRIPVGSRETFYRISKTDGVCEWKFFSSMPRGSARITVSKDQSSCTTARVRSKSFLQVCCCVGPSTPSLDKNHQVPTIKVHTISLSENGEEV
Source text: (§1) α1A-AR cDNA inserted in the prK5 vector was kindly provided by Michael Brownstein (Craig Venter Institute, Rockville, MD). Point mutations were introduced into the α1A-AR gene by sense and antisense primers (Sigma-Aldrich, St Quentin-Fallavier, France) containing the desired changes, using the QuikChange Site-Directed Mutagenesis kit. The incorporation of each mutation was verified by DNA sequencing.
(§2) CHO cells stably expressing α1-ARs were kindly provided by Dr. Hervé Paris (INSERM U858, Toulouse, France) and were grown in a 50∶50 Dulbecco's Modified Eagle's Medium (DMEM)/Ham's F12 medium supplemented with 10% (v/v) foetal bovine serum (FBS), glutamine (2 mM), penicillin (100 units/ml) and streptomycin (100 µg/ml) at 37°C with 5% CO2. COS-7 cells were grown at 37°C under 5% CO2 in Dulbecco's modified Eagle's medium containing 10% fetal calf serum, 1% penicillin and 1% glutamine (Sigma-Aldrich, St Quentin-Fallavier, France). At 80% confluence, the cells were transfected using a calcium phosphate precipitation method for transient expression of the genetic construct. After 48 h incubation at 37°C, cells were harvested and the membranes were prepared as follow. Cells were washed with ice-cold phosphate buffer and centrifuged at 1700 g for 10 min (4°C). The pellet was suspended in ice-cold buffer (1 mM EDTA, 25 mM sodium phosphate, and 5 mM MgCl2, pH 7.4) and homogenized using an Potter-Elvehjem homogenizer (Fisher Scientific Labosi, Elancourt, France). The homogenate was centrifuged at 1700 g for 15 min (4°C). The sediment was resuspended in buffer, homogenized, and centrifuged at 1700 g for 15 min (4°C). The combined supernatants were centrifuged at 35,000 g for 30 min (4°C), and the pellet was suspended in the same buffer (0.1 ml/dish). […] Cells were grown in a 50∶50 Dulbecco's Modified Eagle's Medium (DMEM)/Ham's F12 medium supplemented with 10% (v/v) foetal bovine serum (FBS), glutamine (2 mM), penicillin (100 units/ml) and streptomycin (100 µg/ml) at 37°C with 5% CO2. Media was changed every 2–3 days and cells were passaged when confluent with 0.05% trypsin and 0.02% EDTA.
(§3) Binding experiments were performed in a 100 µL reaction mix at room temperature in buffer composed of 50 mM Tris-HCl, pH 7.4, 10 mM MgCl2, 1 g/L BSA. Reactions were stopped by filtration through 96 GF/C filter plates pre-incubated with 0.5% polyethylenimine.
(§4) Binding data were analyzed by nonlinear regression using the KaleidaGraph 4.0 software (Synergy software, Reading, PA). pKD values and Bmax (number of binding sites) were determined by applying a nonlinear regression to data obtained with saturation binding assays. The nonlinear regression used was BS = (Bmax*A)/KD+A, where BS is the specific binding, Bmax the number of binding sites, A the concentration of radioligand, and KD the dissociation constant of the radioligand. Data resulting from competition binding assays were analyzed using the Hill equation for IC50 and curve slope estimations. […] The linear curves were analyzed with IC50 = Ki+(L/KD)*Ki. Dissociation kinetics were analyzed using a simple equation of exponential decay BS * exp (-Koff*t), where BS is the specific binding at time zero and Koff is the dissociation rate constant. Results are expressed as mean ± s.e. mean from n independent experiments. One-way Anova test was used to compare values. A p<0.05 was accepted for statistical significance.

[2] = target: T2, human α1A-AR F312A variant (Homo sapiens, UniProt P35348, F312A)
T2 construct: expressed in transfected cells; host or cells: COS-7 (transient, calcium phosphate), membranes
T2 sequence (P35348 1-466 F312A): T1 sequence (P35348 1-466 F288A) with A288F, F312A
Source text: as §1, §2, §3, §4

[3] = target: T3, human α1A-AR D106A variant (Homo sapiens, UniProt P35348, D106A)
T3 construct: expressed in transfected cells; host or cells: COS-7, transient (calcium phosphate)
T3 sequence (P35348 1-466 D106A): T1 sequence (P35348 1-466 F288A) with D106A, A288F
Source text: as §1, §2, §3, §4

With `O=C1c2ccccc2CCC1CNCCc1ccc(O)c([125I])c1` (stereo not drawn) [125I-HEAT] the “^125I-HEAT Ratio (loss of affinity relative to WT)” value ([1]; F288A) was 1.3, the “^125I-HEAT pKd” value ([1]; F288A (6.51), saturation binding, n = 3–6) was 9.92±0.12 and the “^125I-HEAT Ratio (loss of affinity relative to WT)” value ([2]; F312A) was 0.44. For the same compound, the “^125I-HEAT pKd” value ([2]; F312A (7.39), saturation binding, n = 3–6) was 10.40±0.10, the “^125I-HEAT Ratio (loss of affinity relative to WT)” value ([3]; D106A) was 1.7 and the “^125I-HEAT pKd” value ([3]; D106A (3.32), saturation binding, n = 3–6) was 9.82±0.11.
